According to article PMC9523454 (Pharmacology Research & Perspectives, 2022):
Values joined by “and” are separate entries in the source; they are usually repeats but may differ in a detail not shown here. Equal values may be shown once. No end group written: not given here.

Assays:
GLP‐1R/GIPR heteromer = type: cell-based, human; conditions: 1 μM ligand; HEK‐293, fixed ratio of GLP‐1R‐Nluc and GIPR‐SYFP2; mean ± SEM, at least three independent experiments
GLP‐1R‐Nluc (human) = GLP‐1R‐Nluc (human) (UniProt P43220); assay: FRET or BRET
Sequence of UniProt P43220 (P43220 24-463): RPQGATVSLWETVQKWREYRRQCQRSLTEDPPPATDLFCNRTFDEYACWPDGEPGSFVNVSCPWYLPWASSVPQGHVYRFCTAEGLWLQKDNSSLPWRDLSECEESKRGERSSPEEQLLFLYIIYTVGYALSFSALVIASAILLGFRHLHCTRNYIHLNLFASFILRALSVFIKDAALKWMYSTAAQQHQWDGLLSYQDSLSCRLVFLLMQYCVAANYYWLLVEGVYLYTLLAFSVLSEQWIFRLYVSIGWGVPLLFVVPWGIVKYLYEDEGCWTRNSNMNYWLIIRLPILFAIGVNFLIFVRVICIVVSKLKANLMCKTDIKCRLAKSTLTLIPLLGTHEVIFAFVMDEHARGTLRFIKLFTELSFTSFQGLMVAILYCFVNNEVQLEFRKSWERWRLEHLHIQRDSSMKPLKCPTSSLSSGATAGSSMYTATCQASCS

GIPR‐Nluc (human) = GIPR‐Nluc (human) (UniProt P48546); assay: FRET or BRET
Sequence of UniProt P48546 (P48546 22-466): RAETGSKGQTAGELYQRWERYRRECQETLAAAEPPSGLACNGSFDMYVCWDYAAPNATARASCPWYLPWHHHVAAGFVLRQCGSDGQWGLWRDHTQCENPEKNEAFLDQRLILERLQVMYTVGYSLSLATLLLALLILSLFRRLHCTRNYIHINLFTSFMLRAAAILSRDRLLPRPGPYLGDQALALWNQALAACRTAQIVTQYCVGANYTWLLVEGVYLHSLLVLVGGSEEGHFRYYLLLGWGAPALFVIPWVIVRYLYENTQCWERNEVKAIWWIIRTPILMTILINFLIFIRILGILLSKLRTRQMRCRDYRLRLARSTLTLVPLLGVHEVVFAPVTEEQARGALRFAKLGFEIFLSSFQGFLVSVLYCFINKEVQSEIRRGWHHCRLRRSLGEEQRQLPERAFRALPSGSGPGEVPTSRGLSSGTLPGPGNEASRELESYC

GIPR = conditions: cited from earlier work

Substance	Change in BRET ratio vs non‐stimulated cells (GLP‐1R/GIPR heteromer)	pEC50 of the agonist GLP-1 for recruitment (GLP‐1R‐Nluc (human))	further results
exendin‐4 (9–39)	no significant effect on BRET ratio	–	–
NES‐Venus‐mGαq	–	7.8 -log EC50/M and 7.7 -log EC50/M and 7.9 -log EC50/M	pEC50 of the agonist GIP for recruitment (GIPR‐Nluc (human)): 8 -log EC50/M and 7.6 -log EC50/M and 7.8 -log EC50/M
(Pro3)GIP: previously reported to be a GIPR antagonist but subsequently shown to be a low potency GIPR agonist; custom synthesized (YAPGTFISDYSIAMDKIHQQDFVNWLLAQKGKKNDWKHNITQ; Gastric inhibitory polypeptide; UniProt P09681 52-93, looked up, variant E3P)	no effect on BRET ratio	–	Activity at GIPR (GIPR): low potency GIPR agonist
GLP‐1 (9‐36): GLP‐1 metabolite, metabolic breakdown product of GLP‐1 (EGTFTSDVSSYLEGQAAKEFIAWLVKGR-NH2; UniProt P01275 100-127, looked up, fragment)	significantly increased the BRET ratio (p < .001)	–	–
Oxyntomodulin: posttranslational product of proglucagon and an endogenous dual GLP‐1R/glucagon receptor agonist (HSQGTFTSDYSKYLDSRRAQDFVQWLMNTKRNRNNIA; Oxyntomodulin; UniProt P01275 53-89, looked up)	no effect on BRET ratio	–	–
NES‐Venus‐mGαs	–	7.8 -log EC50/M and 7.5 -log EC50/M and 7.7 -log EC50/M	–
